Source: article PMC6591174, “The beneficial androgenic action of steroidal aromatase inactivators in estrogen-dependent breast cancer after failure of nonsteroidal drugs” (Cell Death & Disease, 2019)
“Also recorded” adds a separate entry of the source.

Key:
MCF-7 cells [1] = assay: Cell proliferation assay (CCK8), MCF-7; format: cell-based, human; conditions: for proliferation of MCF-7 cells: 1 nM-10 μM, 6 days, 10% PRF-CT with 1 nM E2
Description: (§1) Fig. 2 Proliferative response of cancer cells to indicated compounds. a–c the effect of concentrations of different compounds on the growth of the cells. […] Cell growth was measured as described in the “Materials and methods”. The proliferation of cells is expressed as the ratio of the cells compared with the control wells (untreated cells). d, e Influence of different compounds on the cell cycle of MCF-7 cells. MCF-7 cells were cultured in 10% PRF-CT with E2 (1 nM) for 3 days before plating. Cells were seeded in six-well plates and, the next day, starved in PRF for 24 h. Cells were exposed to different compounds at a concentration of 100 nM for 72 h, and then subjected to cell-cycle analysis as described in “Materials and methods”. f MCF-7 cells on poly-L-lysine-coated glass coverslips were exposed to compounds (100 nM) in 10% PRF-CT with 1 nM E2 for 72 h. Control cells were treated with vehicle. DAPI stains DNA, and the secondary anti-mouse antibody to detect the antibody bound to Ki-67 is labeled with the cyanine dye Cy3. The cells were stained with DAPI (blue). Immunofluorescence staining of Ki-67 of cells was observed using fluorescence microscope. Red: Ki-67; blue: nucleus.Typical image is shown. Scale bars: 10 μm. Data represent a mean ± SEM of three independent experiments, each in triplicate; bars, SEM. *P ≤ 0.05 vs. control
(§2) After 24 h, cells were exposed for 3–6 days to various concentrations of compounds (1 nM– 10 μM) or left untreated. The incubation time and the compounds concentrations were chosen based on previous studies[17],[32]–[34]. The effects of the various drugs on cell proliferation at the indicated concentrations (1 nM– 10 μM) were determined by using a CCK8 kit (Dojindo Laboratories, Kumamoto, Japan) according to the manufacturer’s protocol. The absorbance at 450 nm was measured by using a Versamax microplate reader (Thermo Varioskan Flash, USA). Cell growth is expressed as the ratio of the cells compared with the control wells (untreated cells).

ZR-75-1 cells = assay: Cell proliferation assay (CCK8), ZR-75-1; format: cell-based, human; conditions: for proliferation of ZR-75-1 cells: 1 nM-10 μM, 6 days, 10% PRF-CT with 1 nM E2
Description: as §1, §2

[2] = system: AR protein in MCF-7 cells; assay: AR protein expression by western blot and immunofluorescence; format: cell-based, human; conditions: incubation 3 days
Description: Fig. 3 Influence of indicated compounds on the expression of the AR. […] AR protein expression was analyzed by western blot as described in “Materials and methods”. b The densitometric evaluation of the bands is calculated by ImageJ. The numbers represent the densitometric value relative to untreated control. […] Typical image is shown. Scale bars: 10 μm
Total cell proteins were obtained from 70% confluent cell cultures. Protein extracts of whole cells (50 μg) were denatured, separated by SDS–PAGE and transferred to polyvinylidene fluoride membranes. After blocking with 3% bovine serum albumin in Tris-buffered saline-Tween, membranes were probed overnight at 4 °C. […] After incubation with the appropriate secondary antibody, results were detected using ECL detection reagents. Immunoreactive bands were quantified by densitometry using ImageJ software.
MCF-7 cells were seeded on 24-well plates (2 × 10^4 cells/well) with a poly-L-lysine-coated glass coverslip per well in 10% PRF–CT. […] Cells were visualized with a ×40 objective and a Qimaging digital camera coupled to an Olympus X71 fluorescence microscope using a red fluorescent protein filter.

[3] = system: prostate (P), seminal vesicle (SV), levator ani muscle (LA); assay: Hershberger assay in orchiectomized rats; format: in vivo, Wistar male rats; conditions: for androgenic effect (P and SVs): 10 mg/kg s.c. once a day
Description: Fig. 5 Estimation of the androgenic and myotrophic activities of the indicated compounds obtained by the Hershberger Assay. Wistar male rats were orchiectomized (orchi) or sham-operated (intact) under ether anesthesia. After 14 days of endogenous hormonal decline, animals were randomly allocated to treatment and vehicle groups (n = 6). The numbers at the end of the abbreviations correspond to the dose in mg/kg body weight of the animal. Flutamide was given by gavage (10 mg/kg/day). […] Then the animals were treated once a day. The rats were sacrificed after completion of the 12-day treatment. Following removal, wet weights of the prostate (P), seminal vesicle (SV), levator ani muscle (LA) were determined. a Size and shape of P, SV and LA at the end of the treatment period. b, c, and d, influence of treatment with the compounds alone or together with the antiandrogen flutamide at the indicated doses on the weight of the organs (P, SV and LA) of the castrated animals. The mean wet weight is represented by the bars in the graphs. Values are means ± SEM; bars, SEM. *P ≤ 0.05, **P ≤ 0.01 vs. control
The Hershberger assay was performed according to the guidelines of the rodent Hershberger assay. Male Wistar rats (140 g, 5–6 weeks) were orchiectomized (orchi) or sham-operated (intact) under ether anesthesia. After 14 days of endogenous hormonal decline, animals were randomly allocated to treatment and vehicle groups (n = 6); orchi group = orchi rats receiving sham injections; intact group = sham-operated rats receiving sham injections; treatment group = orchi rats receiving drugs injections by subcutaneous. The antiandrogen flutamide given by gavage (10 mg/kg/day). Drugs were dissolved in ethanol and diluted in corn oil. The animals were treated once a day. Rats were sacrificed after completion of the 12-day treatment. Following removal, the wet weights of the P, SV, and LA muscle were determined. The data of tissue weights are presented as mean ± SEM.

androgenic organs = system: androgenic organs; set-up: method as in PMID 404132; conditions: doses of 3 and 10 mg/kg; cited from earlier work
[4] = target: T1, Rat AR ligand-binding domains (His-GST-ARLBD) (Rattus norvegicus, UniProt P15207); assay: AR fluorescence polarization-based competitive hormone-binding assay (PolarScreen AR Competitor Assay, Red)
T1 construct: purchased Invitrogen
T1 sequence (P15207 651-882 limits assumed): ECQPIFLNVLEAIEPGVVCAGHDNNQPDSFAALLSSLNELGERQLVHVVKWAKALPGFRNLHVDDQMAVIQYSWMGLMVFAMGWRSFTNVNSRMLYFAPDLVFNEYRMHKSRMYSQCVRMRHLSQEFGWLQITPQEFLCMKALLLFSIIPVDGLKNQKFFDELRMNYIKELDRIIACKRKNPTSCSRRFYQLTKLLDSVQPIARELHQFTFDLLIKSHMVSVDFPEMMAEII
Excerpt: Fig. 4 The affinity of indicated compounds to the AR and their regulation of AR transcriptional activity. a AR fluorescence polarization-based competitive hormone-binding assays. […] Curve fitting was done using GraphPad Prism software (version 7.00). […] ARE(3×)-regulated dual-luciferase activity in U2-OS cells under steroid-free conditions. Cells were transiently transfected with pcDNA3.1-AR and ARE3-luc2P (firefly luciferase reporter plasmids) and the internal normalization control pRL-TK (Renilla luciferase reporter plasmid). Six hours after transfection, cells were treated as indicated. Then they were assayed 48 h after transfection for dual-luciferase activity. […] Briefly, compounds were dissolved in DMSO and mixed at 2% (vol/vol) with AR Red Screening Buffer. The tested compounds were subsequently serially diluted in two-fold increments with AR Red Screening Buffer and mixed 1:1 (vol/vol) with a 2 × AR/Fluormone AL complex. Competition for binding AR between Fluormone AL and the tested compounds was allowed to come to equilibrium for 4 h and not more than 20 h at room temperature in the dark. Fluorescence polarization value (mP) was measured on a fluorescence polarization plate reader (Biotech cytation5). Each compound dose was performed in triplicate, relative error was calculated from the standard error of the mean (SEM), and curve fitting was performed using GraphPad Prism™ 7.0 software.

MCF-7 cells [5] = assay: Cell cycle analysis by flow cytometry; format: cell-based, human; conditions: 100 nM, 72 h
Description: Fig. 2 Proliferative response of cancer cells to indicated compounds. a–c the effect of concentrations of different compounds on the growth of the cells. Cells were cultured in 10% PRF-CT with E2 1 nM (MCF-7 and ZR-75-1) or without E2 (MDA-MB-231) for 3 days before plating. Cells were seeded in 96-well plates and 24 h later they were exposed to different concentrations (1 nM– 10 μM) of compounds for 6 days (MCF-7 and ZR-75-1) or 3 days (MDA-MB-231). Cell growth was measured as described in the “Materials and methods”. The proliferation of cells is expressed as the ratio of the cells compared with the control wells (untreated cells). d, e Influence of different compounds on the cell cycle of MCF-7 cells. MCF-7 cells were cultured in 10% PRF-CT with E2 (1 nM) for 3 days before plating. Cells were seeded in six-well plates and, the next day, starved in PRF for 24 h. Cells were exposed to different compounds at a concentration of 100 nM for 72 h, and then subjected to cell-cycle analysis as described in “Materials and methods”. f MCF-7 cells on poly-L-lysine-coated glass coverslips were exposed to compounds (100 nM) in 10% PRF-CT with 1 nM E2 for 72 h. Control cells were treated with vehicle. DAPI stains DNA, and the secondary anti-mouse antibody to detect the antibody bound to Ki-67 is labeled with the cyanine dye Cy3. The cells were stained with DAPI (blue). Immunofluorescence staining of Ki-67 of cells was observed using fluorescence microscope. Red: Ki-67; blue: nucleus.Typical image is shown. Scale bars: 10 μm. Data represent a mean ± SEM of three independent experiments, each in triplicate; bars, SEM. *P ≤ 0.05 vs. control
Cell cycle kinetics were studied by flow cytometry. MCF-7 cells were cultured in 10% PRF–CT with 1 nM E2 for 3 days prior to seeding on six-well plates (10^5 cells/well). Following seeding of cells, cells were serum starved for 24 h, and then treated with media containing 100 nM of the test compounds for 72 h. Cell-cycle analysis was performed as described by Ando[20].

[6] = system: ER(+) breast cancer (luminal A tumors); set-up: method as in printed; conditions: daily topical application to the affected breast, within 40 days; earlier work of the authors, ref not given; cited from earlier work
[7] = 100 nM compound with 100 nM OH-Flutamide

C=C1C[C@@H]2[C@H](CC[C@]3(C)C(=O)CC[C@@H]23)[C@@]2(C)C=CC(=O)C=C12 [Exemestane]
proliferation of MCF-7 cells (MCF-7 cells [1]): less effective
proliferation of ZR-75-1 cells (ZR-75-1 cells): less effective
expression of the AR protein [2]: considerably more effective than Formestane
androgenic effect (P and SVs) ([3]; 12 days, castrated rats): slightly androgenic; also recorded: the same effect
androgenic activity (androgenic organs): slight androgenic activity

CC(C)(O)C(=O)Nc1ccc([N+](=O)[O-])c(C(F)(F)F)c1 [OH-Flutamide, hydroxyflutamide]
antiproliferative effect in presence of OH-Flutamide, MCF-7 (MCF-7 cells [1]; [7]): the antiproliferative effect of DHT is almost completely abolished
antiproliferative effect in presence of OH-Flutamide, ZR-75-1 (ZR-75-1 cells; [7]): the antiproliferative effect of DHT is almost completely abolished

CC(C)C(=O)Nc1ccc([N+](=O)[O-])c(C(F)(F)F)c1 [Flutamide, flutamide]
prevention of androgenic effects of the test compounds ([3]; Flutamide by gavage 10 mg/kg/day, concomitant): All androgenic effects can be eliminated

C[C@@H]1CC2=CC(=O)CC[C@@H]2[C@H]2CC[C@@]3(C)[C@@H](CC[C@]3(C)O)[C@@H]21 [Mibolerone]
IC50 [4]: 11.8 nM
proliferation of MCF-7 cells (MCF-7 cells [1]): antiproliferative in two ER(+)/AR(+) cell lines at all concentrations
proliferation of ZR-75-1 cells (ZR-75-1 cells): antiproliferative in two ER(+)/AR(+) cell lines at all concentrations
effect on P, SVs and LA compared with DHT ([3]; 0.5 mg/kg s.c. once a day, 12 days, castrated rats): more effective than DHT

C[C@]12CCC(=O)C(O)=C1CC[C@@H]1[C@@H]2CC[C@]2(C)C(=O)CC[C@@H]12 [4-OHA, 4-hydroxyandrostenedione]
proliferation of MCF-7 cells (MCF-7 cells [1]): some antiproliferative action
proliferation of ZR-75-1 cells (ZR-75-1 cells): no effect on the growth
influence on the cell cycle (G1/G0 increase, S-phase decrease) (MCF-7 cells [5]): apparently more effective than Exemestane and 17-HEXE
androgenic effect (P and SVs) ([3]; 12 days, castrated rats): no effect on P and SVs
androgenic effect (P and SVs) ([3]; 12 days, castrated rats, listed as Formestane): no effect on androgenic organs whatsoever
reduction of tumor size (regression) [6]: more than 50%
